From US5770383A, “Tricyclic retinoids, methods for their production and use” (Ligand Pharmaceuticals, Inc., priority 1995, dated 1998)

Experiments:
RAR and RXR receptors = assay: Co-transfection assay, RARs and RXRs taken together; assay type: cell-based
Description: (§1) Utilizing the "cis-trans" or "co-transfection" assay described by Evans et al., Science, 240:889-95 (May 13, 1988), the disclosure of which is herein incorporated by reference, the retinoid compounds of the present invention were tested and found to have strong, specific activity as either selective RAR agonists, selective RXR agonists, or as pan-agonist activators of both RAR and RXR receptors. This assay is described in further detail in U.S. Pat. Nos. 4,981,784 and 5,071,773, the disclosures of which are incorporated herein by reference.
(§2) The co-transfection assay provides a method for identifying functional agonists which mimic, or antagonists which inhibit, the effect of native hormones, and quantifying their activity for responsive IR proteins. In this regard, the co-transfection assay mimics an in vivo system in the laboratory. Importantly, activity in the co-transfection assay correlates very well with known in vivo activity, such that the co-transfection assay functions as a qualitative and quantitative predictor of a tested compounds Ln vivo pharmacology. See, e.g., T. Berger et al. 41 J. Steroid Biochem. Molec. Biol. 733 (1992), the disclosure of which is herein incorporated by reference.
(§3) In the co-transfection assay, a cloned cDNA for an IR (e.g., human RARα, RARβ, RXRγ) under the control of a constitutive promoter (e.g., the SV 40 promoter) is introduced by transfection (a procedure to induce cells to take up foreign genes) into a background cell substantially devoid of endogenous IRs. This introduced gene directs the recipient cells to make the IR protein of interest. A second gene is also introduced (co-transfected) into the same cells in conjunction with the IR gene. This second gene, comprising the cDNA for a reporter protein, such as firefly luciferase (LUC), controlled by an appropriate hormone responsive promoter containing a hormone response element (HRE). This reporter plasmid functions as a reporter for the transcription-modulating activity of the target IR. Thus, the reporter acts as a surrogate for the products (mRNA then protein) normally expressed by a gene under control of the target receptor and its native hormone.
(§4) The co-transfection assay can detect small molecule agonists or antagonists of target IRs. Exposing the transfected cells to an agonist ligand compound increases reporter activity in the transfected cells. This activity can be conveniently measured, e.g., by increasing luciferase production, which reflects compound-dependent, IR-mediated increases in reporter transcription. […] . Increasing concentrations of a suspected antagonist will decrease the reporter signal (e.g., luciferase production). The co-transfection assay is therefore useful to detect both agonists and antagonists of specific IRs. Furthermore, it determines not only whether a compound interacts with a particular IR, but whether this interaction mimics (agonizes) or blocks (antagonizes) the effects of the native regulatory molecules on target gene expression, as well as the specificity and strength of this interaction.
To determine RAR and/or RXR agonist activity of the compounds of the present invention, the CV-1 cells were transiently transfected by calcium phosphate coprecipitation according to the procedure of Berger et al., 41 J.Steroid Biochem. Mol. Biol., 733 (1992) with the following receptor expressing plasmids: pRShRARα: Giguere et al., 330 Nature, 624 (1987); pRShRARβ and pRShRARγ, Ishikawa et al., 4 Mol. Endocrin., 837 (1990); pRShRXRα, Mangelsdorf et al., 345 Nature, 224 (1990); and pRSmRXRβ and pRSmRXRγ, Mangelsdorf et al., 6 Genes & Devel., 329 (1992), the disclosures of which are herein incorporated by reference.

AML-193 cell line = assay: Incorporation of 3H-thymidine, AML-193; conditions: 96 h, read-out: TdR IC50
RARs = assay: Co-transfection assay, RARs taken together; assay type: cell-based; conditions: Table 1
Description: as §1, §2, §3
as §4, with “Furthermore, it determines not only whether a compound interacts with a particular IR, but whether this interaction mimics (agonizes) or blocks (antagonizes) the effects of the native regulatory molecules on target gene expression, as well as the specificity and strength of this interaction.” left out

TPA induction of ODC = conditions: literature; cited from earlier work

IC50 (AML-193 cell line) | Compound | selectivity / potency profile on RARs and RXRs in words (RAR and RXR receptors) | RAR activity in words (RARs) | effect on ODC activity, in words (TPA induction of ODC)
 | CC(/C=C/C=C1/CC(C)(C)Oc2cc3c(cc21)C(C)(C)CCC3(C)C)=C\C(=O)O [Compound 104b, (2E,4E)-3-Methyl-6-(2,3,6,7,8,9-hexahydro-2,2,6,6,9,9-hexamethylbenzo[b]-chromen-4-ylidene)-hexa-2,4-dienoic acid] | potent and selective RXR compound |  | 
0.1 nM | C/C(=C\c1ccc(C(=O)O)cc1)c1ccc2c(c1)C(C)(C)CCC2(C)C [TTNPB, (E)-4-[2-(5,6,7,8-tetrahydro-5,5,8,8-tetramethyl-2-napthalenyl)-1-propenyl]benzoic acid] |  |  | 
 | CC(/C=C/C=C1\CCCc2cc3c(cc21)C(C)(C)CCC3(C)C)=C\C(=O)O [Compound 109b, (2E,4E)-3-Methyl-6-[(E)-3,4,5,6,7,8-hexahydro-5,5,8,8-tetramethyl-2H-anthracen-1-ylidene]hexa-2,4-dienoic acid] | RAR selective | extremely potent RAR active | 
 | CC(/C=C/C=C1/CCCc2cc3c(cc21)C(C)(C)CCC3(C)C)=C\C(=O)O [Compound 101b, (2E,4E)-3-Methyl-6-[(Z)-3,4,5,6,7,8-hexahydro-5,5,8,8-tetramethyl-2H-anthracen-1-ylidene]hexa-2,4-dienoic acid] | superior potency profiles to that of the known RXR active pan-agonist compound 9-cis retinoic acid | extremely potent RAR active | 
 | CC(/C=C/CC1CCCc2cc3c(cc21)C(C)(C)CCC3(C)C)=C\C(=O)O (racemic) [Compound 124b, (2E,4E)-3-Methyl-6-(1,2,3,4,5,6,7,8-octahydro-5,5,8,8-tetramethylanthracen-1-yl)hexa-2,4-dienoic acid] | superior potency profiles to that of the known RXR active pan-agonist compound 9-cis retinoic acid |  | 
 | CC1=C(/C=C/C(C)=C/C=C/C(C)=C/C(=O)O)C(C)(C)CCC1 [retinoic acid] |  |  | inhibits this induction of ODC by TPA
 | CC(/C=C/C=C1/CCOc2cc3c(cc21)C(C)(C)CCC3(C)C)=C\C(=O)O [Compound 144b] | superior potency profiles to that of the known RXR active pan-agonist compound 9-cis retinoic acid | extremely potent RAR active | 
 | CC(/C=C/C=C1\CCOc2cc3c(cc21)C(C)(C)CCC3(C)C)=C\C(=O)O [Compound 119b, (2E,4E)-3-Methyl-6-[(E)-2,3,6,7,8,9-hexahydro-6,6,9,9-tetramethyl-benzo[g]chromen-4-ylidene]hexa-2,4-dienoic acid] | RAR selective | extremely potent RAR active | 
 | CCCCCCCCCCCCCC(=O)O[C@@H]1[C@@H](C)[C@@]2(O)[C@@H](C=C(CO)C[C@]3(O)C(=O)C(C)=C[C@@H]23)[C@@H]2C(C)(C)[C@]12OC(C)=O [TPA, 12-0-tetradecanoylphorbor-13-acetate] |  |  | induces ODC activity
